Results as given in US20230287391A1, “KRAB FUSION REPRESSORS AND METHODS AND COMPOSITIONS FOR REPRESSING GENE EXPRESSION” (THE GOVERNING COUNCIL OF THE UNIVERSITY OF TORONTO, priority 2020, published 2023).

Experiments:
Type in all cases: cell-based, human
[1] = system: 7×TetO array downstream of the polyadenylation site of a PGK1-EGFP-pA reporter in K562 cells; assay: PGK1-EGFP-pA reporter silencing by KRAB-dCas9 fusions tethered to a 7xTetO array in K562 cells; details: KRAB fused to N terminus of dCas9
Excerpt: (§1) The human genome encodes over 350 KRAB domain proteins. It was postulated that KRAB domains would differ in their ability to silence gene expression when fused to dCas9. 57 human KRAB domains were individually fused to the N terminus of dCas9 and assayed for activity when recruited to one of two different genomically integrated reporter constructs. In one, they were recruited to a SV40 promoter driving EGFP expression in HEK293T cells, and in the other tethered to a 7×TetO array downstream of the polyadenylation site of a PGK1-EGFP-pA reporter in K562 cells (FIG. 1a). KRAB domains had strikingly different effects, spanning from almost complete silencing to no change at all (FIG. 1b,c and FIG. 5). The differences were not explained by expression levels of the dCas9 fusion (FIG. 3). […] KRAB was also fused to the C-terminus of dCas9 with similar results (see Example 5 and FIG. 3).
(§2) Cell culture. All HEK293T cells, including the SV40-EGFP reporter cell line (gift from Lei Stanley Qi lab, Stanford University), were maintained in Dulbecco's Modified Eagle's Medium (DMEM) with 10% fetal bovine serum (FBS), and 1% penicillin-streptomycin. Since the SV40-EGFP reporter cell line was originally generated with a random integration of lentivirus, a clonal line was made to ensure homogeneously high expression levels of EGFP and its targeting gRNA. […]

[2] = system: HEK293T cells; assay: Genome-wide CRISPRi cell viability dropout screen (Dolcetto Set A); details: depletion of gRNAs for gold-standard essential vs non-essential genes after 21 days
Excerpt: Finally, the performance of the three KRAB effector constructs was investigated in a large-scale unbiased screen. […] These cells were infected with the recently described Dolcetto Set A gRNA library targeting 18,901 genes with three gRNAs per gene and measured gRNA depletion after 21 days. The relative depletion of gRNAs targeting gold-standard essential genes and non-essential genes with each construct was compared with receiver operating characteristics (ROC) curves. […] It should be noted that the AUROC values reported here are somewhat lower than what has been reported for CRISPRi screens in other cell lines like K562 and […] but in line with the previously conducted screen in HEK293T cells (FIG. 2D, E). The lower efficiency may be due to the lower expression level of TRIM28 in HEK293T cells (FIG. 3).
CRISPRi. Viral titer for each cell line was determined on 15-cm dishes with a range of virus volumes (0, 50, 100, 150, 200, 250 and 500 μl). Validated HEK293T cells with heterogeneous expression of each repressor-dCas9 derivative was transduced at a dose resulting in ˜30% […]. Selection was done with 1 μg/ml puromycin 24 hrs post transduction resulting in complete selection within 48-72 hrs (TO). At ˜30% infection efficiency, enough cells were transduced to achieve an initial representation of >500-fold for each dCas9 variant. […]

[3] = system: SV40 promoter driving EGFP expression in HEK293T cells; assay: SV40-EGFP reporter silencing by KRAB-dCas9 fusions in HEK293T cells; details: KRAB fused to N terminus of dCas9, flow cytometry 21 d after infection
Excerpt: as §1, §2

[4] = system: SV40-EGFP reporter cell line; assay: ABA-induced recruitment of KRAB-PYL1 to ABI1-dCas9 at the SV40-EGFP reporter
Excerpt: The difference in KRAB-domain activity might be explained either by their intrinsic potency or by their distinct temporal dynamics. […] The interaction between plant proteins […] and PYL1 is induced by abscisic acid (ABA) in a reversible manner (FIG. 1f). A clonal SV40-EGFP reporter cell line expressing ABI1—dCas9 and a gRNA targeting two sites on the SV40 promoter was generated. These cells were then infected with either ZIM3 or KOX1 KRAB domain fused to PYL1 and treated with ABA for 20 d (FIG. 1g, solid lines). […] When ABA was withdrawn after 9d, derepression occurred with similar dynamics with both KRAB domains (FIG. 1g, dashed lines). Thus, the difference in KRAB-domain potency is not due to slower dynamics of KOX1 KRAB induced repression. […] This is consistent with previous studies showing that KRAB domains can mediate silencing via both reversible and irreversible mechanisms.

Substance | repression of EGFP reporter [1] | AUROC (gRNA-level) [2] | AUROC (gene-level) [2] | repression of EGFP reporter [3] | repression of EGFP reporter ([3]; listed as KOX1) | level of EGFP repression ([4]; 100 μM ABA for 20 d, compared with KOX1 KRAB-PYL1) | EGFP expression relative to the original levels ([4]; after 40-d silencing followed by ABA washout) [%]
KOX1 KRAB: KRAB domain from KOX1 (ZNF10) fused to dCas9, used in current implementations of CRISPRi | not a particularly strong repressor | 0.62 | 0.66 | not a particularly strong repressor | did not repress the reporter very robustly |  | 
ZIM3 KRAB-PYL1: ZIM3 KRAB domain fused to PYL1 (SEQ ID NO: 16), recruited to ABI1-dCas9 by abscisic acid |  |  |  |  |  | higher level of repression | 10
